Test results: patent publication US8987193B2, “Nisin derivatives and the use thereof” (University College Cork—National University of Ireland, Cork, priority 2008, dated 2015)
“Also recorded” adds a separate entry of the source. Ends that are not written are not given here.

Tests used:
Staph. aureus DPC5245 = assay: Deferred antagonism assay; format: cell-based; settings: producing strain; diameter of zone minus 5 mm; average of duplicates; St. aureus DPC5245
How it was run: (§1)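 Producer strains replicated on GM17 agar, grown overnight, then overlaid with soft agar (0.75% w/v) seeded with indicator strain. Zone size = clearing diameter minus 5 mm growth diameter, relative to NZ9800 pCI372nisA control; mean of duplicates.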

[1] = tested on: Staph. aureus ST528 (MRSA); assay: Deferred antagonism assay; format: cell-based; settings: producing strain, diameter of zone minus diameter of bacterial growth (5 mm), average of duplicates
How it was run: as §1

[2] = tested on: Strep. agalactiae ATCC13813; assay: Deferred antagonism assay; format: cell-based; settings: producing strain, diameter of zone minus 5 mm, average of duplicates
L. monocytogenes CBC1 = assay: Deferred antagonism assay; format: cell-based, Listeria monocytogenes; design: key: + = Enhanced bioactivity relative to control; − = Bioactivity equal to or less than control; NA = no activity evident; settings: producing strain; L. mono CBC1
How it was run: (§2)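 Producer strains replicated on GM17 or GM17 x-gal agar, grown overnight, then overlaid with 0.75% agar seeded with indicator strain. Zone size = diameter of clearing minus 5 mm growth diameter. Purified nisins tested by well diffusion at 37° C overnight; activity in AU/ml from reciprocal of highest active dilution × 20.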

L. monocytogenes CBC2 = assay: Deferred antagonism assay; format: cell-based, Listeria monocytogenes; design: key: + = Enhanced bioactivity relative to control; − = Bioactivity equal to or less than control; NA = no activity evident; settings: producing strain; L. mono CBC2
How it was run: as §2

L. monocytogenes CBC3 = assay: Deferred antagonism assay; format: cell-based, Listeria monocytogenes; design: key: + = Enhanced bioactivity relative to control; − = Bioactivity equal to or less than control; NA = no activity evident; settings: producing strain; L. mono CBC3
How it was run: as §2

L. lactis CBC7 = assay: Deferred antagonism assay; format: cell-based; design: key: + = Enhanced bioactivity relative to control; − = Bioactivity equal to or less than control; NA = no activity evident; settings: producing strain
How it was run: as §2

L. lactis CBC8 = assay: Deferred antagonism assay; format: cell-based; design: key: + = Enhanced bioactivity relative to control; − = Bioactivity equal to or less than control; NA = no activity evident; settings: producing strain
How it was run: as §2

S. aureus CBC4 = assay: Deferred antagonism assay; format: cell-based; design: key: + = Enhanced bioactivity relative to control; − = Bioactivity equal to or less than control; NA = no activity evident; settings: producing strain
How it was run: as §2

C. sporogenes CBC5 = assay: Deferred antagonism assay; format: cell-based, Clostridium sporogenes; design: key: + = Enhanced bioactivity relative to control; − = Bioactivity equal to or less than control; NA = no activity evident; settings: producing strain
L. plantarum CBC6 = assay: Deferred antagonism assay; format: cell-based, Lactobacillus plantarum; design: key: + = Enhanced bioactivity relative to control; − = Bioactivity equal to or less than control; NA = no activity evident; settings: producing strain
How it was run: as §2

indicator strains = assay: Deferred antagonism assays, various indicator strains (summary); format: cell-based; settings: for Strain(s) against which the derivative (producing strain) displays enhanced bioactivity: relative to nisin A-producing control, value = strains listed; for bioactivity of the producing strain, in words: in general / against the strains tested
How it was run: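 Producer strains were replicated on GM17 or GM17 x-gal agar, grown overnight, then overlaid with GM17, BHI, TS or MH soft agar (0.75% w/v) seeded with the indicator strain. Zone size was taken as the clearing diameter minus the diameter of bacterial growth (5 mm).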

| Substance | zone size relative to that of the NZ9800 pCI372nisA control (Staph. aureus DPC5245) | zone size relative to that of the NZ9800 pCI372nisA control [1] | zone size relative to that of the NZ9800 pCI372nisA control [2] | Bioactivity relative to control (L. monocytogenes CBC1) | Bioactivity relative to control (L. monocytogenes CBC2) | Bioactivity relative to control (L. monocytogenes CBC3) | Bioactivity relative to control (L. lactis CBC7) | Bioactivity relative to control (L. lactis CBC8) | Bioactivity relative to control (S. aureus CBC4) | Bioactivity relative to control (C. sporogenes CBC5) | Bioactivity relative to control (L. plantarum CBC6) | Strain(s) against which the derivative (producing strain) displays enhanced bioactivity (indicator strains) | bioactivity of the producing strain, in words (indicator strains) |
| --- | --- | --- | --- | --- | --- | --- | --- | --- | --- | --- | --- | --- | --- |
| NisinA N20H (ITSISLCTPGCKTGALMGCHMKTATCHCSIHVSK; not fully specified; also: lantibiotic nisin: dehydrated residues and thioether rings not placed; UniProt P13068 24-57, looked up, variant N20H) [nisin A derivative, hinge substitution N20H] | 95% | 74.5% | 59.5% | − | − | + | − | − | + | + | − | L. monocytogenes CBC3, S. aureus CBC4 and C. sporogenes CBC5 |  |
| NisinA M21K (ITSISLCTPGCKTGALMGCNKKTATCHCSIHVSK; not fully specified; also: lantibiotic nisin: dehydrated residues and thioether rings not placed; UniProt P13068 24-57, looked up, variant M21K) [nisin A derivative, hinge substitution M21K] | 104% | 89% | 91% | − | − | − | − | − | + | + | − | Staph. aureus CBC4 and C. sporogenes CBC5; also recorded: S. aureus CBC 4 and C. sporogenes CBC5; also recorded: S. aureus CBC4, C. sporogenes CBC5 | close to wild-type bioactivities |
| NisinA N20S (ITSISLCTPGCKTGALMGCSMKTATCHCSIHVSK; not fully specified; also: lantibiotic nisin: dehydrated residues and thioether rings not placed; UniProt P13068 24-57, looked up, variant N20S) [nisin A derivative, hinge substitution N20S] | 87.5% | 83.5% | 72% | − | + | − | − | − | + | + | − | L. monocytogenes CBC2, Staph. aureus CBC4 and C. sporogenes CBC5 and L. monocytogenes CBC2, S. aureus CBC4 and L. monocytogenes CBC2, S. aureus CBC4, C. sporogenes and CBC5 |  |
| NisinA K22V | 113% | 107% | 126% | − | + | − | − | + | − | − | − | L. monocytogenes CBC2 and L. lactis CBC8 |  |
| K22D: nisin A derivative, hinge substitution K22D; peptide not detected by CMS (ITSISLCTPGCKTGALMGCNMDTATCHCSIHVSK; cysteine pairing not given here; also: lantibiotic nisin-A; UniProt P13068 24-57, looked up, variant K22D) | 0% | 0% | 0% | − | − | − | − | − | − | − | − |  | devoid of bioactivity |
| M21E: nisin A derivative, hinge substitution M21E (ITSISLCTPGCKTGALMGCNEKTATCHCSIHVSK; cysteine pairing not given here; also: lantibiotic nisin-A; UniProt P13068 24-57, looked up, variant M21E) | 0% | 0% | 0% | − | − | − | − | − | − | − | − |  | loss of bioactivity |
| NisinA K22Q (ITSISLCTPGCKTGALMGCNMQTATCHCSIHVSK; not fully specified; also: lantibiotic nisin: dehydrated residues and thioether rings not placed; UniProt P13068 24-57, looked up, variant K22Q) [nisin A derivative, hinge substitution K22Q] | 77% | 82% | 82% | − | − | − | − | + | − | − | − | L. lactis CBC8 | slightly diminished bioactivity |
| N20L: nisin A derivative, hinge substitution N20L (ITSISLCTPGCKTGALMGCLMKTATCHCSIHVSK; cysteine pairing not given here; also: lantibiotic nisin-A; UniProt P13068 24-57, looked up, variant N20L) | 69.5% | 43% | 69% | − | − | − | − | − | − | − | − |  | retention of relatively high levels of bioactivity |
| NisinA K22M (ITSISLCTPGCKTGALMGCNMMTATCHCSIHVSK; cysteine pairing not given here; also: lantibiotic nisin-A; UniProt P13068 24-57, looked up, variant K22M) [nisin A derivative, hinge substitution K22M] | 79.5% | 77% | 104% | − | − | − | − | + | − | − | − | L. lactis CBC8 | retention of relatively high levels of bioactivity |
